Here are results for 5 compounds from article PMC6271703, “Absorbability, Mechanism and Structure-Property Relationship of Three Phenolic Acids from the Flowers of Trollius chinensis” (Molecules, 2014).

Data set [1] in a line: Caco-2 cell monolayer transport experiment. It is filed as in vitro ADME. Conditions: human; for Papp A→B at 90 min, 100 μmol/L: incubation up to 90 min, n = 3. Here is the method:
To facilitate the cells’ differentiation and formation of a confluent monolayer, Caco-2 cells were seeded at a density of 1.0 × 10^5 cells/cm^2 on a 12-well Transwell insert filter. The inserts were fed with culture medium at 2 days intervals in the first week, and then at daily intervals for the AP side and 2 days intervals for the BL side until they were used for the transport experiment 21 days after seeding. The AP and BL sides contained 0.5 mL and 1.5 mL of culture medium, respectively. […] The cell inserts were used after the resistance reached above 600 Ω∙cm^2.
On day 21, transport study was initiated by careful removal of the culture medium from AP and BL sides. Caco-2 monolayers were rinsed twice with pre-warmed HBSS and were incubated by pre-warmed HBSS for 30 min at 37 °C. PA, GA and TS were dissolved in DMSO, and diluted to the concentration of 25, 50 and 100 μmol/L with HBSS. The final DMSO concentration was less than 1%. Test compounds were added to the AP side (0.5 mL) or BL side (1.5 mL) of the inserts, while the receiving chamber contained the corresponding volume of HBSS. […] At 30, 60, 90, 120, 150 and 180 min, 0.2 mL of solutions from BL side or AP side were collected, and replaced with an equal volume of HBSS. Samples were frozen immediately and stored below −20 °C before analysis. Upon completion of all permeation experiments, TEER values were measured to ensure that cell monolayer integrity and viability had not been adversely affected by experimental conditions.
(§1) The cell survival rate (%) was calculated using the equation survival rate= A/A0 × 100, wherein A was the average absorbance value of treatment group; A0 was the average absorbance value of the blank control group. The Papp was determined in this study by HPLC quantification of the compounds in the receiver chamber after transport across the Caco-2 monolayer. The calculation was described by the equation Papp = (dQ/dt) × (1/A) × (1/C0), wherein dQ/dt was the rate of appearance of the test compound on the receiver compartment (μmol/s); C0 was the initial test compound concentration on the donor compartment (μmol/mL); and A was the surface area of Caco-2 monolayer (cm^2).
The percentage transported (%) was calculated using the equation % Transported = QB/(CS × VD) × 100, wherein QB was the amount of compounds in the receiver compartment(μmol); CS was the donor concentration of test compounds (μmol/L); VD was the volume of the donor compartment (L). The transport rate (μmol/h/cm^2) was calculated using the equation transport rate = QB/(t × A), wherein QB was the amount of compounds in the receiver compartment(μmol); t was the incubating time (h); A was the surface area of Caco-2 monolayer (cm^2).
For orientation: Passage across Caco-2 layers is used to estimate intestinal permeability.

The subject of a further data set is Caco-2 cells. The experiment in a line: MTT assay on Caco-2 cells. The class given is cell-based, human. Conditions: for Survival Rate: 4 h, n = 4. The protocol: Caco-2 cells at logarithmic growth phase were seeded onto 96-well plates and incubated at 37 °C in culture hood. The culture medium was removed after cells formed a full layer, and each 100 μL of HBSS solution (negative control group) and drug-containing HBSS solution (three phenolic acids at the concentrations of 25, 50 and 100 μmol/L, respectively) was added to each well. When the plates were cultured for 4 h, HBSS solution was completely transferred out and each 100 μL of MTT solution (0.5 mg/mL) was added to each well. MTT solution was removed carefully after 4 hours of incubation at 37 °C, and each 150 μL of DMSO was added to each well, then culture vessels were agitated on an orbital shaker for 10 min and absorbance was read on a microplate reader at 570 nm.
as §1
(In general: Formazan colour is commonly taken as a measure of viable cells.)

Data set [2] is described as follows: Caco-2 cell monolayer transport experiment. It is filed as in vitro ADME. Conditions: human; for Papp A→B at 90 min, 25 μmol/L / Papp B→A at 90 min, 25 μmol/L / Papp A→B at 90 min, 50 μmol/L / Papp B→A at 90 min, 50 μmol/L / Papp B→A at 90 min, 100 μmol/L / Papp A→B at 90 min / Papp B→A at 90 min: incubation up to 90 min; for Papp A→B at 90 min, 25 μmol/L / Papp B→A at 90 min, 25 μmol/L / Papp A→B at 90 min, 50 μmol/L / Papp B→A at 90 min, 50 μmol/L / Papp B→A at 90 min, 100 μmol/L: n = 3; for Papp A→B at 90 min / Papp B→A at 90 min: average of 25, 50 and 100 μmol/L; for Papp at 90 min: monitored for 90 min, read-out: bidirectional Papp level (AP to BL and BL to AP).

The test system of another data set is Pseudomonas aeruginosa. Further details: method as in PMID 11849843. Conditions: ref [4],[5]; cited from earlier work.
The test system of another data set is Staphylococcus aureus. Further details: method as in PMID 11849843. Conditions: ref [4],[5]; cited from earlier work.
The subject of the next data set is Para 3. Further details: method as in ref [6] = [6]; 6. Li Q.F. Feng S.Q. Li Y.L. Cen Y.Z. Yang Y.T. Wang L.Y. Study on the antibacterial and antiviral activity compositions of Trollius chinensis Bunge J. Zhejiang Univ. (Sci. Ed.) 2004 31 412 415. To be noted: antiviral, ref [6]; cited from earlier work.
For a further data set, the system named is Streptococcus pneumonia. The arrangement: method as in ref [7] = [7]; 7. Wang R.F. The Constituents and Bioactivities of Jinlianhua and Pangdahai Doctoral Thesis Peking University Bejing, China 2003. To be noted: ref [7]; cited from earlier work.
Another data set concerns influenza A. The arrangement: method as in ref [7] = [7]; 7. Wang R.F. The Constituents and Bioactivities of Jinlianhua and Pangdahai Doctoral Thesis Peking University Bejing, China 2003. To be noted: antiviral, ref [7]; cited from earlier work.

Converted amounts (≈) assume the structure as drawn.

Regarding `COc1cc(C(=O)O)cc(CC=C(C)C)c1O` [PA, 4-hydroxy-3-methoxy-5-(3-methylbut-2-en-1-yl)benzoic acid], the Papp A→B at 90 min, 100 μmol/L in data set [1] was 29.6 ± 1.1 ×10⁻⁶ cm/s. Also, in the data set with Caco-2 cells (25 μmol/L), the “Survival Rate” value is given as 118.8 ± 11.6%. Moreover, the “Survival Rate” value in the data set on Caco-2 cells (50 μmol/L) is listed as 110.5 ± 3.8%. The “Survival Rate” value with Caco-2 cells (100 μmol/L) came to 124.5 ± 2.2%. In data set [2], this compound showed a Papp A→B at 90 min, 25 μmol/L of 31.7 ± 0.4 ×10⁻⁶ cm/s; a basolateral-to-apical permeability (Papp B→A) at 90 min, 25 μmol/L of 25.4 ± 2.2 ×10⁻⁶ cm/s; a Papp A→B at 90 min, 50 μmol/L of 28 ± 1.3 ×10⁻⁶ cm/s; a Papp B→A at 90 min, 50 μmol/L of 25.6 ± 1.9 ×10⁻⁶ cm/s. Also, in data set [2], the Papp B→A at 90 min, 100 μmol/L was 25.9 ± 1.4 ×10⁻⁶ cm/s; the Papp A→B at 90 min was 29.8 ± 1.3 ×10⁻⁶ cm/s; the Papp B→A at 90 min turned out to be 25.6 ± 1.8 ×10⁻⁶ cm/s; the Papp at 90 min is roughly 10 ×10⁻⁶ cm/s. Further, the MIC in the data set on Pseudomonas aeruginosa was 16 µg/mL (≈ 67.7 µM). Besides, the MIC in the data set on Staphylococcus aureus was 200 µg/mL (≈ 846 µM). Further, the IC50 with Para 3 is 184.2 µg/mL (≈ 780 µM).

Turning to `CC(C)NCC(O)COc1cccc2ccccc12` (stereo not shown) [propranolol, reference compound], in data set [1] (standard markers added to the AP side, model validation, read-out: Papp of reference controls), the Papp at 180 min came out at 12.4 ×10⁻⁶ cm/s.

For `CC(=O)O[C@H]1C(=O)[C@@]2(C)[C@H]([C@H](OC(=O)c3ccccc3)[C@]3(O)C[C@H](OC(=O)[C@H](O)[C@@H](NC(=O)c4ccccc4)c4ccccc4)C(C)=C1C3(C)C)[C@]1(OC(C)=O)CO[C@@H]1C[C@@H]2O` [Paclitaxel, reference compound], the “Survival Rate” value is reported as 67.3 ± 8.2% in the data set on Caco-2 cells (25 μmol/L), 45.5 ± 6.7% in the data set with Caco-2 cells (50 μmol/L) and 37.4 ± 3.5% in the data set on Caco-2 cells (100 μmol/L). In the data set on Caco-2 cells (at different concentrations (25, 50, 100 μmol/L)), the “Survival rate of Caco-2 cells” value was “below 70%”.

On to `COc1cc(C(=O)O)cc(CC=C(C)C)c1O[C@@H]1O[C@H](CO)[C@@H](O)[C@H](O)[C@H]1O` [TS, 3-methoxy-5-(3-methylbut-2-en-1-yl)-4-(((2S,3R,4S,5S,6R)-3,4,5-trihydroxy-6-(hydroxymethyl)tetrahydro-2H-pyran-2-yl)oxy)benzoic acid], for which, in data set [1], the Papp A→B at 90 min, 100 μmol/L was found to be 7.7 ± 0.9 ×10⁻⁶ cm/s. The “Survival Rate” value with Caco-2 cells (25 μmol/L) was found to be 98.9 ± 4.3%. Moreover, the “Survival Rate” value with Caco-2 cells (50 μmol/L) was determined as 107.3 ± 7.0%. Moreover, the “Survival Rate” value with Caco-2 cells (100 μmol/L) was found to be 118.2 ± 8.1%. Besides, in data set [2], the Papp A→B at 90 min, 25 μmol/L came out at 8.6 ± 1.6 ×10⁻⁶ cm/s; the Papp B→A at 90 min, 25 μmol/L was 8.6 ± 0.4 ×10⁻⁶ cm/s; the Papp A→B at 90 min, 50 μmol/L was determined as 10.6 ± 0.3 ×10⁻⁶ cm/s; the Papp B→A at 90 min, 50 μmol/L was found to be 10.8 ± 0.6 ×10⁻⁶ cm/s. In data set [2], the basolateral-to-apical permeability (Papp B→A) at 90 min, 100 μmol/L turned out to be 8 ± 0.3 ×10⁻⁶ cm/s; the Papp A→B at 90 min was found to be 8.9 ± 0.9 ×10⁻⁶ cm/s; the Papp B→A at 90 min amounted to 9.1 ± 0.4 ×10⁻⁶ cm/s; the Papp at 90 min is roughly 10 ×10⁻⁶ cm/s. For the same compound, in the data set on Streptococcus pneumonia, the MIC was 128 µg/mL (≈ 321 µM).

`COc1cc(C(=O)O)cc2c1OC(C)(C)CC2` [GA, 8-methoxy-2,2-dimethylchroman-6-carboxylic acid] returned a Papp A→B at 90 min, 100 μmol/L in data set [1] of 17 ± 1.2 ×10⁻⁶ cm/s. For the same compound, the “Survival Rate” value in the data set on Caco-2 cells (25 μmol/L) is on record as 107.1 ± 5.7%. The “Survival Rate” value with Caco-2 cells (50 μmol/L) came to 118.9 ± 13.7%. For the same compound, the “Survival Rate” value in the data set on Caco-2 cells (100 μmol/L) worked out at 123.6 ± 6.2%. For the same compound, in data set [2], the Papp A→B at 90 min, 25 μmol/L was found to be 21.4 ± 2 ×10⁻⁶ cm/s; the apparent permeability from basolateral to apical (Papp B→A) at 90 min, 25 μmol/L was 22.1 ± 0.8 ×10⁻⁶ cm/s; the Papp A→B at 90 min, 50 μmol/L turned out to be 15.9 ± 0.2 ×10⁻⁶ cm/s; the Papp B→A at 90 min, 50 μmol/L worked out at 20 ± 0.7 ×10⁻⁶ cm/s. In addition, in data set [2], the basolateral-to-apical permeability (Papp B→A) at 90 min, 100 μmol/L was 19.4 ± 1 ×10⁻⁶ cm/s; the Papp A→B at 90 min turned out to be 18.1 ± 1.1 ×10⁻⁶ cm/s; the Papp B→A at 90 min turned out to be 20.5 ± 0.8 ×10⁻⁶ cm/s; the Papp at 90 min was roughly 10 ×10⁻⁶ cm/s. The IC50 in the data set on influenza A is 42.1 µg/mL (≈ 178 µM).

One may read the Papp A→B as how fast a substance crosses the layer from the apical side. By Papp B→A is commonly meant how fast a substance crosses the layer from the basolateral side. What is called Papp is the rate of passage across a membrane or cell layer, normalised by area and donor concentration. Broadly, the MIC is the smallest concentration in the dilution series that meets the test's criterion for growth inhibition. The term IC50 denotes the midpoint of a concentration-inhibition curve.
